From patent US20150320696A1, “COMBINATION THERAPY FOR CANCER” (priority 2012, published 2015)

Columns and labels:
[1] = test system: cancer cell lines; experiment: MTT cytotoxic assay, all cancer cell lines examined (general statements); assay type: cell-based; conditions: terpinen-4-ol at a concentration of 0.01%
Experimental: Human colon adenocarcinoma grade II cells, HT29; Human colon carcinoma cells, HCT116; Human colonic carcinoma cells, COLO 320; Human cell line of metastatic pancreatic adenocarcinoma, COLO 357; Human pancreatic carcinoma epithelial-like cell line, PANC-1; and Human pancreatic carcinoma cells, MIA-PACA were grown in high-glucose Dulbecco's modified Eagle's medium (DMEM) supplemented with 5% heat-inactivated (HI) fetal bovine serum (FBS), 1% Glutamine and streptomycin/penicillin.
(§1) Androgen-independent, highly anaplastic prostate cancer cell line with moderate metastatic potential, DU145; Aggressive androgen-independent anaplastic cell line, CL-1; and the colorectal adenocarcinoma DLD1 cells were grown in RPMI-1640 medium supplemented with 5% HI-FBS.
The cytotoxic effects of terpinen-4-ol on cells were measured with the 3-[4,5-dimethylthiazol-2-yl]-2,5 diphenyltetrazolium (MTT) assay. Cells were seeded in 96-well plates (1×10^4 cells/well) in complete medium. After 12-16 hours of growth, different concentrations of each of the described agents were added to the cells in triplicates. […] Absorbance at 570 nm and reference wavelength of 690 nm were recorded on an automated microplate reader. The relative number of viable cells compared to control cell line grown under the same condition, but without the added examined agent was determined.

[2] = test system: murine B16 melanoma tumor cell line; conditions: Greay S J et al., 2010; cited from earlier work
[3] = test system: human M14 melanoma cells; conditions: Calcabrini A et al., 2004; cited from earlier work
[4] = test system: colorectal cancer cell line HT29; experiment: MTT cytotoxic assay, HT29 cells; assay type: cell-based, Human
Experimental: (§2) The cytotoxic effects of terpinen-4-ol on cells were measured with the 3-[4,5-dimethylthiazol-2-yl]-2,5 diphenyltetrazolium (MTT) assay. Cells were seeded in 96-well plates (1×10^4 cells/well) in complete medium. After 12-16 hours of growth, different concentrations of each of the described agents were added to the cells in triplicates. 72 h later, the medium was replaced with fresh medium (100 μl per well) containing 1 mg/ml MTT and the cell were further incubated for 2 to 4 h. MTT-formazan crystals were dissolved by the addition of 100 μl extraction buffer. Absorbance at 570 nm and reference wavelength of 690 nm were recorded on an automated microplate reader. The relative number of viable cells compared to control cell line grown under the same condition, but without the added examined agent was determined.

[5] = test system: pancreatic cancer cell line PANC-1; experiment: MTT cytotoxic assay, PANC-1 cells; assay type: cell-based, Human
Experimental: as §2

[6] = test system: colorectal cancer cell line DLD1; experiment: MTT cytotoxic assay, DLD1 cells; assay type: cell-based
Experimental: as §2

[7] = test system: DLD-1 colorectal cancer cell line xenograft; experiment: Xenograft model of nude mice bearing DLD-1 colorectal cancer cell line; assay type: in vivo, athymic nude mice
Experimental: Male athymic nude mice, 6-8 weeks old, (Harlan Laboratories) were housed in sterile cages and handled with aseptic precautions. The mice were fed ad libitum. The therapeutic anti-cancer activity of terpinen-4-ol alone or in combination with additional anti-cancer agents was examined as follows: exponentially growing DLD1 cancer cells were harvested and resuspended at a final concentration of 5×10^6 cells per 0.2 ml PBS per injection. The cells were injected subcutaneously at two sites on the backs of the mice. When tumors were palpable, mice were randomly divided into the treatment groups as described hereinbelow.
At the 9th day after cell injection mice were randomly divided into treatment and control groups and the treatment was started by intra-tumor injection. The control group (5 mice) received 50 μl of a PBS solution with 1% DMSO; the treatment group (5 mice) received 50 μl of PBS solution with 1% DMSO containing 0.1% (v/v) terpinen-4-ol (1A).
Mice were treated every second day. The mice were weighed and tumor volume was measured every three days (with a caliper) starting from the onset of treatment with terpinen-4-ol/control. Tumor volume was calculated as 4/3π·a·b^2. At the end of the experiment, the mice were sacrificed by cervical dislocation after anesthesia and the tumors were excised and measured for volume and weight. Half of each tumor was preserved in −80° C. and the other half was preserved in 4% formaldehyde.
At the 11th day after cell implantation, mice were randomly divided into groups and the treatment started. The chemotherapeutic agent (cetuximub, referred to hereinafter by its trade name Erbitox®) was administered via intraperitoneal (i.p) injection 24 hours before administration of terpinen-4-ol. The terpinen-4-ol was administered directly into the tumor (intra-tumor injection).
Mice were treated every second day for 2 weeks. Mice were weighed and tumor volume was measured with a caliper before each additional treatment. Tumor volume was calculated as 4/3π·a·b^2.

[8] = test system: prostate cancer cell line CL-1; experiment: MTT cytotoxic assay, CL-1 cells; assay type: cell-based
Experimental: as §1, §2

[9] = test system: prostate cancer cell line DU145; experiment: MTT cytotoxic assay, DU145 cells; assay type: cell-based, Human
Experimental: as §1, §2

[10] = test system: pancreatic cancer cell line COLO 357; experiment: MTT cytotoxic assay, COLO 357 cells; assay type: cell-based, Human
Experimental: as §2, with “Human colon adenocarcinoma grade II cells, HT29; Human colon carcinoma cells, HCT116; Human colonic carcinoma cells, COLO 320; Human cell line” for “The cytotoxic effects”, “metastatic pancreatic adenocarcinoma, COLO 357; Human pancreatic carcinoma epithelial-like cell line, PANC-1; and Human pancreatic carcinoma cells, MIA-PACA” for “terpinen-4-ol on cells”, “grown in high-glucose Dulbecco's modified Eagle's medium (DMEM) supplemented” for “measured”, “5% heat-inactivated (HI) fetal bovine serum (FBS), 1% Glutamine and streptomycin/penicillin. […]” for “the 3-[4,5-dimethylthiazol-2-yl]-2,5 diphenyltetrazolium (MTT) assay.”

[11] = test system: pancreatic cancer cell line MIA-PACA; experiment: MTT cytotoxic assay, MIA-PACA cells; assay type: cell-based, Human
Experimental: as §2

[12] = test system: murine AE17 mesothelioma tumor cell line; conditions: Greay S J et al., 2010; cited from earlier work
[13] = test system: drug (adriamicin)-resistant cell line (ADR); conditions: cell line expressing high levels of P-glycoprotein; Calcabrini A et al., 2004; cited from earlier work

CC1=CCC(O)(C(C)C)CC1 (stereo not drawn) [terpinen-4-ol, 4-methyl-1-(1-methylethyl)-3-cyclohexen-1-ol]
cytotoxic effectiveness [1]: moderately effective
anti-proliferative effect [2]: significant anti-proliferative effects
effect on cell growth [3]: impair the growth
concentration dependence of cytotoxic effect ([4]; 0.005%, 0.01%, 0.02% and 0.10% (v/v), FIG. 2B): concentration dependent
dependence of cytotoxic activity on DMSO ([4]; 0.01% DMSO added to medium containing 0.01%, 0.05% or 0.10% terpinen-4-ol, FIG. 1B): does not depend on the presence of DMSO
cytotoxic activity in the presence of DMSO compared to without ([4]; 0.01% DMSO, FIG. 1B): lower activity
concentration dependence of cytotoxic effect ([5]; 0.005%, 0.01%, 0.02% and 0.10% (v/v), FIG. 2F): concentration dependent
dependence of cytotoxic activity on DMSO ([5]; 0.01% DMSO added to medium containing 0.01%, 0.05% or 0.10% terpinen-4-ol, FIG. 1C): does not depend on the presence of DMSO
concentration dependence of cytotoxic effect ([6]; 0.005%, 0.01%, 0.02% and 0.10% (v/v), FIG. 2A): concentration dependent
dependence of cytotoxic activity on DMSO ([6]; 0.01% DMSO added to medium containing 0.01%, 0.05% or 0.10% terpinen-4-ol, FIG. 1A): does not depend on the presence of DMSO
volume of the implanted tumor ([7]; Example 5, intra-tumor injection of 50 μl 0.1% terpinen-4-ol (about 1.65 mg/Kg per injection) every second day, vs control, FIG. 5A): significantly reduced
weight of the implanted tumor ([7]; Example 5, intra-tumor injection of 50 μl 0.1% terpinen-4-ol (about 1.65 mg/Kg per injection) every second day, vs control, end of assay, FIG. 5B): significantly reduced
effect on the tumor growth ([7]; Example 6, 0.1% terpinen-4-ol intra-tumor, after two weeks of treatment): only minor effect
reduction of tumor size compared to control ([7]; Example 6, 50 μl 0.1% terpinen-4-ol intra-tumor every second day, after two weeks of treatment, FIG. 6): about 3.7%
concentration dependence of cytotoxic effect ([8]; 0.005%, 0.01%, 0.02% and 0.10% (v/v), FIG. 2D): concentration dependent
dependence of cytotoxic activity on DMSO ([8]; 0.01% DMSO added to medium containing 0.01%, 0.05% or 0.10% terpinen-4-ol, FIG. 1G): does not depend on the presence of DMSO
concentration dependence of cytotoxic effect ([9]; 0.005%, 0.01%, 0.02% and 0.10% (v/v), FIG. 2C): concentration dependent
dependence of cytotoxic activity on DMSO ([9]; 0.01% DMSO added to medium containing 0.01%, 0.05% or 0.10% terpinen-4-ol, FIG. 1F): does not depend on the presence of DMSO
concentration dependence of cytotoxic effect ([10]; 0.005%, 0.01%, 0.02% and 0.10% (v/v), FIG. 2G): concentration dependent
dependence of cytotoxic activity on DMSO ([10]; 0.01% DMSO added to medium containing 0.01%, 0.05% or 0.10% terpinen-4-ol, FIG. 1E): does not depend on the presence of DMSO
concentration dependence of cytotoxic effect ([11]; 0.005%, 0.01%, 0.02% and 0.10% (v/v), FIG. 2E): concentration dependent
dependence of cytotoxic activity on DMSO ([11]; 0.01% DMSO added to medium containing 0.01%, 0.05% or 0.10% terpinen-4-ol, FIG. 1D): does not depend on the presence of DMSO
anti-proliferative effect [12]: significant anti-proliferative effects
effectiveness relative to parental M14 cells [13]: more effective
